# Columns and labels:
# [1] = tested on: HS 578T; assay: NCI 60 cell line panel screen (SRB); format: cell-based, human
# [2] = tested on: NCI-H522; assay: NCI 60 cell line panel screen (SRB); format: cell-based, human
# [3] = tested on: KM12; assay: NCI 60 cell line panel screen (SRB); format: cell-based, human
# [4] = tested on: CCRF-CEM; assay: NCI 60 cell line panel screen (SRB); format: cell-based, human
# [5] = tested on: MDA-MB231/ATCC; assay: NCI 60 cell line panel screen (SRB); format: cell-based, human
# [6] = tested on: HL-60(TB); assay: NCI 60 cell line panel screen (SRB); format: cell-based, human
# [7] = tested on: T-47D; assay: NCI 60 cell line panel screen (SRB); format: cell-based, human
# [8] = tested on: MCF7; assay: NCI 60 cell line panel screen (SRB); format: cell-based, human
# [9] = tested on: NCI-H23; assay: NCI 60 cell line panel screen (SRB); format: cell-based, human
# [10] = tested on: COLO 205; assay: NCI 60 cell line panel screen (SRB); format: cell-based, human
# [11] = tested on: OVCAR-5; assay: NCI 60 cell line panel screen (SRB); format: cell-based, human
# [12] = tested on: UACC-257; assay: NCI 60 cell line panel screen (SRB); format: cell-based, human; details: UACC-257 (Melanoma)
# [13] = tested on: IGROVI; assay: NCI 60 cell line panel screen (SRB); format: cell-based, human; details: IGROVI (Ovarian Cancer)
# [14] = tested on: A549/ATCC; assay: NCI 60 cell line panel screen (SRB); format: cell-based, human
# [15] = tested on: M14; assay: NCI 60 cell line panel screen (SRB); format: cell-based, human
# [16] = tested on: HT29; assay: NCI 60 cell line panel screen (SRB); format: cell-based, human
# [17] = tested on: NCI/ADR-RES; assay: NCI 60 cell line panel screen (SRB); format: cell-based, human
# [18] = tested on: RPMI-8226; assay: NCI 60 cell line panel screen (SRB); format: cell-based, human
# [19] = tested on: SK-MEL-28; assay: NCI 60 cell line panel screen (SRB); format: cell-based, human
# [20] = tested on: NCI-H322M; format: cell-based
# [21] = tested on: U251; assay: NCI 60 cell line panel screen (SRB); format: cell-based, human
# [22] = tested on: HOP-92; assay: NCI 60 cell line panel screen (SRB); format: cell-based, human
# [23] = tested on: TK-10; assay: NCI 60 cell line panel screen (SRB); format: cell-based, human
# [24] = tested on: EKVX; assay: NCI 60 cell line panel screen (SRB); format: cell-based, human
# [25] = tested on: HCT-15; assay: NCI 60 cell line panel screen (SRB); format: cell-based, human
# [26] = tested on: SF-268; assay: NCI 60 cell line panel screen (SRB); format: cell-based, human
# [27] = tested on: 786-0; assay: NCI 60 cell line panel screen (SRB); format: cell-based, human
# [28] = tested on: BT-549; assay: NCI 60 cell line panel screen (SRB); format: cell-based, human
smiles,measurement,setting,value
"CC1CCC2C(C)C(CC(O)(CC3OC4OC5(C)CCC6C(C)CCC(C3C)C46OO5)CS(=O)(=O)c3ccc(C(=O)O)cc3)OC3OC4(C)CCC1C32OO4 (stereo not drawn) [Compound 10c, bis-trioxane β-hydroxysulfone benzoic acid]",Log10GI50,"[1]; Breast Cancer, HS 578T",−4.82
same,Log10LC50,"[1]; HS 578T (Breast Cancer), LC50: PG=−50",>−4.30 log10M
same,Log10TGI50,"[1]; HS 578T (Breast Cancer), TGI: PG=0",−4.53 log10M
same,Log10TGI50,"[2]; NCI-H522 (Non-Small Cell Lung Cancer), TGI: PG=0",−4.34 log10M
same,Log10LC50,"[2]; NCI-H-522 (Non-Small Cell Lung Cancer), LC50: PG=−50",>−4.30 log10M
same,Log10GI50,"[2]; Non-Small Cell Lung Cancer, NCI-H522",<−8.30
same,Log10GI50,"[3]; Colon Cancer, KM12",<−8.30
same,Log10LC50,"[3]; KM12 (Colon Cancer), LC50: PG=−50",−5.23 log10M
same,Log10TGI50,"[3]; KM12 (Colon Cancer), TGI: PG=0",<−8.30 log10M
same,Log10LC50,"[4]; CCRF-CEM (Leukemia), LC50: PG=−50",>−4.30 log10M
same,Log10TGI50,"[4]; CCRF-CEM (Leukemia), TGI: PG=0",−4.84 log10M
same,Log10GI50,"[4]; Leukemia, CCRF-CEM",<−8.30
same,Log10GI50,"[5]; Breast Cancer, MDA-MB231/ATCC",<−8.30
same,Log10LC50,"[5]; MDA-MB231/ATCC (Breast Cancer), LC50: PG=−50",−5.02 log10M
same,Log10TGI50,"[5]; MDA-MB231/ATCC (Breast Cancer), TGI: PG=0",<−8.30 log10M
same,Log10LC50,"[6]; HL-60(TB) (Leukemia), LC50: PG=−50",>−4.30 log10M
same,Log10TGI50,"[6]; HL-60(TB) (Leukemia), TGI: PG=0",<−8.30 log10M
same,Log10GI50,"[6]; Leukemia, HL-60(TB)",<−8.30
same,Log10GI50,"[7]; Breast Cancer, T-47D",<−8.30
same,Log10LC50,"[7]; T-47D (Breast Cancer), LC50: PG=−50",>−4.30 log10M
same,Log10GI50,"[8]; Breast Cancer, MCF7",<−8.30
same,Log10LC50,"[8]; MCF7 (Breast Cancer), LC50: PG=−50",>−4.30 log10M
same,Log10TGI50,"[8]; MCF7 (Breast Cancer), TGI: PG=0",−5.13 log10M
same,Log10LC50,"[9]; NCI-H23 (Non-Small Cell Lung Cancer), LC50: PG=−50",−4.77 log10M
same,Log10TGI50,"[9]; NCI-H23 (Non-Small Cell Lung Cancer), TGI: PG=0",−5.25 log10M
same,Log10GI50,"[9]; Non-Small Cell Lung Cancer, NCI-H23",<−8.30
same,Log10LC50,"[10]; COLO 205 (Colon Cancer), LC50: PG=−50",−5.55 log10M
same,Log10TGI50,"[10]; COLO 205 (Colon Cancer), TGI: PG=0",<−8.30 log10M
same,Log10GI50,"[10]; Colon Cancer, COLO 205",<−8.30
same,Log10LC50,"[11]; OVCAR-5 (Ovarian Cancer), LC50: PG=−50",−4.88 log10M
same,Log10TGI50,"[11]; OVCAR-5 (Ovarian Cancer), TGI: PG=0",<−8.30 log10M
same,Log10GI50,"[11]; Ovarian Cancer, OVCAR-5",<−8.30
same,Log10LC50,[12]; LC50: PG=−50,>−4.30 log10M
same,Log10TGI50,[12]; TGI: PG=0,−4.38 log10M
same,Log10LC50,[13]; LC50: PG=−50,>−4.30 log10M
same,Log10TGI50,[13]; TGI: PG=0,>−4.30 log10M
same,Log10LC50,"[14]; A549/ATCC (Non-Small Cell Lung Cancer), LC50: PG=−50",>−4.30 log10M
same,Log10TGI50,"[14]; A549/ATCC (Non-Small Cell Lung Cancer), TGI: PG=0",>−4.30 log10M
same,Log10GI50,"[14]; Non-Small Cell Lung Cancer, A549/ATCC",−5.28
same,Log10LC50,"[15]; M14 (Melanoma), LC50: PG=−50",−4.42 log10M
same,Log10TGI50,"[15]; M-14 (Melanoma), TGI: PG=0",−4.91 log10M
same,Log10GI50,"[15]; Melanoma, M14",<−8.30
same,Log10GI50,"[16]; Colon Cancer, HT29",<−8.30
same,Log10LC50,"[16]; HT29 (Colon Cancer), LC50: PG=−50",>−4.30 log10M
same,Log10TGI50,"[16]; HT29 (Colon Cancer), TGI: PG=0",>−4.30 log10M
same,Log10GI50,"[17]; Breast Cancer, NCI/ADR-RES",−5.73
same,Log10LC50,"[17]; NCI/ADR-RES (Breast Cancer), LC50: PG=−50",−4.63 log10M
same,Log10TGI50,"[17]; NCI/ADR-RES (Breast Cancer), TGI: PG=0",−5.09 log10M
same,Log10GI50,"[18]; Leukemia, RPMI-8226",<−8.30
same,Log10LC50,"[18]; RPMI-8226 (Leukemia), LC50: PG=−50",>−4.30 log10M
same,Log10TGI50,"[18]; RPMI-8226 (Leukemia), TGI: PG=0",−5.03 log10M
same,Log10GI50,"[19]; Melanoma, SK-MEL-28",−5.45
same,Log10LC50,"[19]; SK-MEL-28 (Melanoma), LC50: PG=−50",>−4.30 log10M
same,Log10TGI50,"[19]; SK-MEL-28 (Melanoma), TGI: PG=0",−4.63 log10M
same,Log10GI50,[20],−6.03
same,Log10TGI50,[20],−4.98 log10M
same,Log10LC50,"[20]; NCI-H322M (Non-Small Cell Lung Cancer), LC50: PG=−50",−4.57 log10M
same,Log10GI50,"[21]; CNS Cancer, U251",<−8.30
same,Log10LC50,"[21]; U251 (CNS Cancer), LC50: PG=−50",−4.72 log10M
same,Log10TGI50,"[21]; U251 (CNS Cancer), TGI: PG=0",−5.22 log10M
same,Log10LC50,"[22]; HOP-92 (Non-Small Cell Lung Cancer), LC50: PG=−50",−4.52 log10M
same,Log10TGI50,"[22]; HOP-92 (Non-Small Cell Lung Cancer), TGI: PG=0",−5.05 log10M
same,Log10GI50,"[22]; Non-Small Cell Lung Cancer, HOP-92",<−8.30
same,Log10GI50,"[23]; Renal Cancer, TK-10",<−8.30
same,Log10LC50,"[23]; TK-10 (Renal Cancer), LC50: PG=−50",−4.62 log10M
same,Log10TGI50,"[23]; TK-10 (Renal Cancer), TGI: PG=0",−5.40 log10M
same,Log10LC50,"[24]; EKVX (Non-Small Cell Lung Cancer), LC50: PG=−50",>−4.30 log10M
same,Log10TGI50,"[24]; EKVX (Non-Small Cell Lung Cancer), TGI: PG=0",−4.63 log10M
same,Log10GI50,"[24]; Non-Small Cell Lung Cancer, EKVX",−4.99
same,Log10GI50,"[25]; Colon Cancer, HCT-15",<−8.30
same,Log10LC50,"[25]; HCT-15 (Colon Cancer), LC50: PG=−50",−4.70 log10M
same,Log10TGI50,"[25]; HCT-15 (Colon Cancer), TGI: PG=0",−5.23 log10M
same,Log10GI50,"[26]; CNS Cancer, SF-268",<−8.30
same,Log10LC50,"[26]; SF-268 (CNS Cancer), LC50: PG=−50",−4.59 log10M
same,Log10TGI50,"[26]; SF-268 (CNS Cancer), TGI: PG=0",−5.14 log10M
same,Log10LC50,"[27]; 786-0 (Renal Cancer), LC50: PG=−50",−4.64 log10M
same,Log10TGI50,"[27]; 786-0 (Renal Cancer), TGI: PG=0",−5.08 log10M
same,Log10GI50,"[27]; Renal Cancer, 786-0",<−8.30
same,Log10LC50,"[28]; BT-549 (Breast Cancer), LC50: PG=−50",−4.61 log10M
same,Log10TGI50,"[28]; BT-549 (Breast Cancer), TGI: PG=0",−5.54 log10M
same,Log10GI50,"[28]; Breast Cancer, BT-549",−6.67

# Reference: patent publication US7417156B2, “Orally active, antimalarial, anticancer, artemisinin-derived trioxane dimers” (Johns Hopkins University, priority 2002, dated 2008)
